Values of other authors as cited in patent US20100111883A1, “CYCLODEXTRIN FORMULATIONS” (priority 2007, published 2010).

Key:
[1] = HPBCD alone, through the skin; stated as typical

- skin penetration [1]: about 0.1%
- water solubility: freely water soluble
SMILES: CC(O)COC[C@H]1O[C@@H]2O[C@H]3[C@H](O)[C@@H](O)[C@@H](O[C@H]4[C@H](O)[C@@H](O)[C@@H](O[C@H]5[C@H](O)[C@@H](O)[C@@H](O[C@H]6[C@H](O)[C@@H](O)[C@@H](O[C@H]7[C@H](O)[C@@H](O)[C@@H](O[C@H]8[C@H](O)[C@@H](O)[C@@H](O[C@H]1[C@H](O)[C@H]2O)O[C@@H]8COCC(C)O)O[C@@H]7COCC(C)O)O[C@@H]6COCC(C)O)O[C@@H]5COCC(C)O)O[C@@H]4COCC(C)O)O[C@@H]3COCC(C)O (stereo partly drawn) [HPBCD, β-cyclodextrin, 2-hydroxypropyl ether]
